Target: T1, Human plasma kallikrein (Homo sapiens, UniProt P03952)
T1 construct: yields a heavy chain (371 amino acids) and a light chain (248 amino acids); purchased Enzyme Research Laboratories
Experiment: Plasma Kallikrein Assay
Type: biochemical
Details: purified Human plasma kallikrein 0.5 nM, substrate Acetyl-K-P-R-AFC; read-out: PKal IC50
Method: The effectiveness of a compound of the present invention as an inhibitor of plasma kallikrein can be determined using a relevant purified serine protease, and an appropriate synthetic substrate. The rate of hydrolysis of the chromogenic or fluorogenic substrate by the relevant serine protease was measured both in the absence and presence of compounds of the present invention. Assays were conducted at rt or at 37° C. […] A decrease in the rate of fluorescence change in the presence of inhibitor is indicative of enzyme inhibition. Such methods are known to one skilled in the art. The results of this assay are expressed as the half-maximal inhibitory concentrations (IC50), or the inhibitory constant, Ki.
Plasma kallikrein determinations were made in 50 mM HEPES buffer at pH 7.4 containing 150 mM NaCl, 5 mM CaCl2), and 0.1% PEG 8000 (polyethylene glycol; Fisher Scientific). Determinations were made using purified Human plasma kallikrein at a final concentration of 0.5 nM (Enzyme Research Laboratories) and the synthetic substrate, Acetyl-K-P-R-AFC (Sigma #C6608) at a concentration of […].
Times required to achieve equilibration between enzyme and inhibitor were determined in control experiments. […] IC50 was determined by inflection point from a four parameter logistic curve fit. Ki was calculated using the Cheng Prusoff equation, Ki=IC50/(1+([S]/Km)).

T1 sequence (P03952 391-638 limits assumed): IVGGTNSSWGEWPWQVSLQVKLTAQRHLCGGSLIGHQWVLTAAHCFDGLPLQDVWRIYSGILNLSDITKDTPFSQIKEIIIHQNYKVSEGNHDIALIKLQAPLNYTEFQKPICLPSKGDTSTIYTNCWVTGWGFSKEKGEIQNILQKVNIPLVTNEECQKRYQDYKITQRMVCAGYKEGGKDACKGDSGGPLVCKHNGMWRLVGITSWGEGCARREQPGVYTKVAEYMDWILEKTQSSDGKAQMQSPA
T1 sequence (P03952 20-390 partner limits assumed): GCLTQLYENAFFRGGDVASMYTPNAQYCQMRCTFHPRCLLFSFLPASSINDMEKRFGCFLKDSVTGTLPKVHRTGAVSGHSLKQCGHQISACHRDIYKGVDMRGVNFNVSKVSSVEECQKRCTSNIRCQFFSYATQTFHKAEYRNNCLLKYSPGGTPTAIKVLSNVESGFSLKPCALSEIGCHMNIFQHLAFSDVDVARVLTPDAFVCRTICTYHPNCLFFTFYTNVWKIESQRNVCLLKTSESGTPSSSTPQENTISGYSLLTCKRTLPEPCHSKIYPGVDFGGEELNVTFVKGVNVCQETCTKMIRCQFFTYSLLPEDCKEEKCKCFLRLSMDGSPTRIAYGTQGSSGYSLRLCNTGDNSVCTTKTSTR

SMILES | IC50 [nM]
O=C1Nc2ccc(Cl)c(F)c2[C@]2(CCN(C(=O)c3cn(Cc4ccc(Cn5ccccc5=O)cc4)nc3C(F)(F)F)C2)O1 [Example 135, (S)-6-Chloro-5-fluoro-1′-(1-(4-((2-oxopyridin-1(2H)-yl)methyl)benzyl)-3-(trifluoromethyl)-1H-pyrazole-4-carbonyl)spiro[benzo[d][1,3]oxazine-4,3′-pyrrolidin]-2(1H)-one] | 7.5
O=C1Nc2ccc(Cl)c(F)c2[C@@]2(CCCN(C(=O)c3cnn(Cc4cncc(Cl)c4)c3)C2)O1 [Example 12, (R)-6-Chloro-1′-(1-((5-chloropyridin-3-yl)methyl)-1H-pyrazole-4-carbonyl)-5-fluorospiro[benzo[d][1,3]oxazine-4,3′-piperidin]-2(1H)-one] | 26.4
Cc1nc(Cn2cc(C(=O)N3CCC[C@@]4(C3)OC(=O)Nc3ccc(Cl)c(F)c34)cn2)sc1C [Example 18, (R)-6-Chloro-1′-(1-((4,5-dimethylthiazol-2-yl)methyl)-1H-pyrazole-4-carbonyl)-5-fluorospiro[benzo[d][1,3]oxazine-4,3′-piperidin]-2(1H)-one] | 50.4
O=C1Nc2ccc(Cl)c(F)c2[C@@]2(CCCN(C(=O)c3cnn(Cc4noc5ccccc45)c3)C2)O1 [Example 17, (R)-1′-(1-(Benzo[d]isoxazol-3-ylmethyl)-1H-pyrazole-4-carbonyl)-6-chloro-5-fluorospiro[benzo[d][1,3]oxazine-4,3′-piepridin]-2(1H)-one] | 37.8
O=C1Nc2ccc(Cl)c(F)c2[C@@]2(CCCN(C(=O)c3nnc([C@](O)(c4ccccc4)C(F)(F)F)[nH]3)C2)O1 [Example 108, (R)-6-Chloro-5-fluoro-1′-(5-((R)-2,2,2-trifluoro-1-hydroxy-1-phenylethyl)-4H-1,2,4-triazole-3-carbonyl)spiro[benzo[d][1,3]oxazine-4,3′-piperidin]-2(1H)-one] | 20.1
N#Cc1ccc(Cn2cc(C(=O)N3CCC[C@@]4(C3)OC(=O)Nc3ccc(Cl)c(F)c34)cn2)cc1Cl [Example 47, (R)-2-Chloro-4-((4-(6-chloro-5-fluoro-2-oxo-1,2-dihydrospiro[benzo[d][1.3]oxazine-4,3′-piperidine]-1′-carbonyl)-1H-pyrazol-1-yl)methyl)benzonitrile] | 27.1
Cc1cnn(Cc2ccc(Cn3cc(C(=O)N4CC[C@]5(C4)OC(=O)Nc4ccc(Cl)c(F)c45)cn3)cc2)c1 [Example 134, (S)-6-Chloro-5-fluoro-1′-(1-(4-((4-methyl-1H-pyrazol-1-yl)methyl)benzyl)-1H-pyrazole-4-carbonyl)spiro[benzo[d][1,3]oxazine-4,3′-pyrrolidin]-2(1H)-one] | 20.8
O=C1Nc2ccc(Cl)c(F)c2[C@@]2(CCCN(C(=O)c3nnc(Cc4ccccc4F)[nH]3)C2)O1 [Example 114, (R)-6-Chloro-5-fluoro-1′-(5-(2-fluorobenzyl)-4H-1,2,4-triazole-3-carbonyl)spiro[benzo[d][1,3]oxazine-4,3′-piperidin]-2(1H)-one] | 33.1
NS(=O)(=O)c1cccc(Cn2cc(C(=O)N3CCC[C@@]4(C3)OC(=O)Nc3ccc(Cl)c(F)c34)cn2)c1 [Example 62, (R)-3-((4-(6-chloro-5-fluoro-2-oxo-1,2-dihydrospiro[benzo[d][1,3]oxazine-4,3′-piperidine]-1′-carbonyl)-1H-pyrazol-1-yl)methyl)benzenesulfonamide] | 49.5
COC(=O)c1ccc(Cn2cc(C(=O)N3CCC[C@@]4(C3)OC(=O)Nc3ccc(Cl)c(F)c34)cn2)cc1F [Example 49, Methyl (R)-4-((4-(6-chloro-5-fluoro-2-oxo-1,2-dihydrospiro[benzo[d][1,3]oxazine-4,3′-piperidine]-1′-carbonyl)-1H-pyrazol-1-yl)methyl)-2-fluorobenzoate] | 47
O=C1Nc2ccc(Cl)c(F)c2[C@@]2(CCCN(C(=O)c3cnn(Cc4ccc(F)c(Cl)c4)c3)C2)O1 [Example 6, (R)-6-Chloro-1′-(1-(3-chloro-4-fluorobenzyl)-1H-pyrazole-4-carbonyl)-5-fluorospiro[benzo[d][1,3]oxazine-4,3′-piperidin]-2(1H)-one] | 8
CN1CCOc2cc(Cn3cc(C(=O)N4CCC[C@@]5(C4)OC(=O)Nc4ccc(Cl)c(F)c45)cn3)ccc21 [Example 51, (R)-6-Chloro-5-fluoro-1′-(1-((4-methyl-3,4-dihydro-2H-benzo[b][1,4]oxazin-7-yl)methyl)-1H-pyrazole-4-carbonyl)spiro[benzo[d][1,3]oxazine-4,3′-piperidin]-2(1H)-one] | 35.1
O=C1Nc2ccc(Cl)c(F)c2[C@@]2(CCCN(C(=O)c3cnn(Cc4ccc(F)c(N5CCC5)c4)c3)C2)O1 [Example 8, (R)-1′-(1-(3-(Azetidin-1-yl)-4-fluorobenzyl)-1H-pyrazole-4-carbonyl)-6-chloro-5-fluorospiro[benzo[d][1,3]oxazine-4,3′-piperidin]-2(1H)-one] | 34.1
O=C1Nc2ccc(Cl)c(F)c2[C@]2(CCN(C(=O)C3CCN(Cc4ccc(Cn5ccccc5=O)cc4)C3)C2)O1 (single isomer, unassigned) [Example 136] | 43.2
O=C1Nc2ccc(Cl)c(F)c2[C@@]2(CCCN(C(=O)c3nnc(Cc4cc(F)cc(Cl)c4)[nH]3)C2)O1 [Example 121, (R)-6-Chloro-1′-(5-(3-chloro-5-fluorobenzyl)-4H-1,2,4-triazole-3-carbonyl)-5-fluorospiro[benzo[d][1,3]oxazine-4,3′-piperidin]-2(1H)-one] | 35.4
CCC(c1ccc2ncncc2c1)n1cc(C(=O)N2CCC[C@@]3(C2)OC(=O)Nc2ccc(Cl)c(F)c23)cn1 (single isomer, unassigned) [Example 41] | 33.8
O=C1Nc2ccc(Cl)c(F)c2[C@@]2(CCCN(C(=O)c3nc(C(O)c4ccc(F)cc4)n[nH]3)C2)O1 (stereo partly drawn) [Example 127, (4R)-6-Chloro-5-fluoro-1′-(3-((4-fluorophenyl)(hydroxy)methyl)-1H-1,2,4-triazole-5-carbonyl)spiro[benzo[d][1,3]oxazine-4,3′-piperidin]-2(1H)-one] | 39.9
CC(c1ccccc1)n1cc(C(=O)N2CCC[C@@]3(C2)OC(=O)Nc2ccc(Cl)c(F)c23)cn1 (single isomer, unassigned) [Example 24] | 38.3
CS(=O)(=O)c1cccc(Cn2cc(C(=O)N3CCC[C@@]4(C3)OC(=O)Nc3ccc(Cl)c(F)c34)cn2)c1 [Example 63, (R)-6-chloro-5-fluoro-1′-(1-(3-(methylsulfonyl)benzyl)-1H-pyrazole-4-carbonyl)spiro[benzo[d][1,3]oxazine-4,3′-piperidin]-2(1H)-one] | 42.6
O=C1Nc2ccc(Cl)c(F)c2[C@@]2(CCCN(C(=O)c3cnn(Cc4cnc5ccccn45)c3)C2)O1 [Example 19, (R)-6-Chloro-5-fluoro-1′-(1-(imidazo[1,2-a]pyridin-3-ylmethyl)-1H-pyrazole-4-carbonyl)spiro[benzo[d][1,3]oxazine-4,3′-piperidin]-2(1H)-one] | 27
O=C1Nc2ccc(Cl)c(F)c2[C@@]2(CCCN(C(=O)c3cnn(Cc4cccc(C(F)(F)F)c4)c3)C2)O1 [Example 5, (R)-6-Chloro-5-fluoro-1′-(1-(3-(trifluoromethyl)benzyl)-1H-pyrazole-4-carbonyl)spiro[benzo[d][1,3]oxazine-4,3′-piperidin]-2(1H)-one] | 23.1
O=C1Nc2ccc(Cl)c(F)c2[C@]2(CCN(C(=O)C3CCN(Cc4ccc(Cn5ccccc5=O)cc4)C3)C2)O1 (single isomer, unassigned) [Example 137] | 31
O=C1Nc2ccc(Cl)c(F)c2[C@@]2(CCCN(C(=O)c3nnc(Cc4cc(F)cc(F)c4)[nH]3)C2)O1 [Example 120, (R)-6-Chloro-1′-(5-(3,5-difluorobenzyl)-4H-1,2,4-triazole-3-carbonyl)-5-fluorospiro[benzo[d][1,3]oxazine-4,3′-piperidin]-2(1H)-one] | 21.1
O=C1Nc2ccc(Cl)c(F)c2[C@@]2(CCCN(C(=O)c3cnn(Cc4ccc5c(c4)CNC5=O)c3)C2)O1 [Example 61, (R)-6-chloro-5-fluoro-1′-(1-((1-oxoisoindolin-5-yl)methyl)-1H-pyrazole-4-carbonyl)spiro[benzo[d][1,3]oxazine-4,3′-piperidin]-2(1H)-one] | 36.5
O=C1Nc2ccc(Cl)c(F)c2[C@@]2(CCCN(C(=O)c3cnn(Cc4ccc(-n5cc[nH]c5=O)cc4)c3)C2)O1 [Example 50, (R)-6-Chloro-5-fluoro-1′-(1-(4-(2-oxo-2,3-dihydro-1H-imidazol-1-yl)benzyl)-1H-pyrazole-4-carbonyl)spiro[benzo[d][1,3]oxazine-4,3′-piperidin]-2(1H)-one] | 13.7
CC1(C)CN(C(=O)c2cnn(Cc3ccccc3)c2)C[C@]2(C1)OC(=O)Nc1ccc(Cl)c(F)c12 [Example 21, (R)-1′-(1-Benzyl-1H-pyrazole-4-carbonyl)-6-chloro-5-fluoro-5′,5′-dimethylspiro[benzo[d][1,3]oxazine-4,3′-piperidin]-2(1H)-one] | 12.1
O=C1Nc2ccc(Cl)c(F)c2[C@@]2(CCCN(C(=O)c3nnc(Cc4cccc(CO)c4)[nH]3)C2)O1 [Example 116, (R)-6-Chloro-5-fluoro-1′-(5-(3-(hydroxymethyl)benzyl)-4H-1,2,4-triazole-3-carbonyl)spiro[benzo[d][1,3]oxazine-4,3′-piperidin]-2(1H)-one] | 39.9

From US20250099478A1, “PLASMA KALLIKREIN INHIBITORS” (Merck Sharp & Dohme LLC, priority 2022, published 2025)
